Data set [1] relates to Female, tumor-bearing B6D2F1 mouse. Briefly: In vivo efficacy study: survivors on day 14 after tumor transplantation. The settings on record: for Survivors/total number: Qd×5, day 14 after tumor transplantation; for animals still alive on day 14: highest dosage level. The source says: Female, tumor-bearing B6D2F1 mouse, day 14 after tumor transplantation.
Data set [2] can be described thus: MTD study on animals free of tumors. The conditions noted are these: in vivo.
Data set [3] relates to leukaemia L1210. Briefly: L1210 leukaemia in the mouse. The format is in vivo. The conditions noted are these: for effectiveness (survival to the end of the experiment): 3 mg/kg and 6 mg/kg, 21 day study. The source says:
FIG. 4 is a bar graph of the results of the effectiveness of (4-methyl-trans-chxn)Pt(ox) in comparison to I-OHP in leukaemia L1210 in the mouse at various dosages over a 21 day study.

The subject of data set [4] is animals free of tumors. Briefly: MTD study on animals free of tumors. The settings on record: on day 5, at MTD 10 mg/kg Qd×5.
The test system of data set [5] is SW480 (adenocarcinoma of the colon; primary resistance to cisplatinum). The format is cell-based. The conditions noted are these: cell line SW480, MTT, 96 h. How it is done: (§1) The cytotoxicity of the compounds according to Examples 1 and 2 was tested by using the following cell lines 41M, CH1 and SW480. In this respect the following method was selected:
(§2) In this regard, adherent monolayer cultures of the following cell lines were used: 41M (adenocarcinoma of the ovary), CH1 (adenocarcinoma of the ovary), SW480 (adenocarcinoma of the colon; primary resistance to cisplatinum).
(§3) Culture conditions: The cells were kept in 75 cm^2 culture flasks at 37° C. and moist atmosphere (5% CO2). Minimal Essential Medium (MEM) was used as culture medium, with 2 mmol/l I-glutamine, 1 mmol/l sodium pyruvate, 50 IU/ml penicillin, 50 μg/ml streptomycin and 10% heat-inactivated foetal bovine serum.
(§4) Test execution: Cell suspensions were obtained from subconfluent cultures by treatment with trypsin and seeded in defined density in 96-well microculture plates. The initial density was selected such that for the complete test duration an exponential growth of the cultures was guaranteed. For the cell line 41M this was 4·10^4 cells/ml, for CH1 1.25·10^4 cells/ml and for SW480 1.5·10^4 cells/ml. The plates were incubated for 24 h under standard conditions to achieve cell establishment. Then the compounds to be tested were introduced in ten-staged concentration series in the culture medium (without addition of organic solvents or dissolving agents) into the plates and left for the complete test duration (96 h). Per experiment each concentration was tested on eight microcultures of the same cell line. At the end of the experiment the respective number of living cells in the microculture was determined spectrophotometrically (at 550 nm) using the MTT-dye reaction in relationship to the untreated control cultures. Equally, the number of living cells in microculture plates started in parallel was quantified at the start of the active substance exposition. […] The mean values were used for the evaluation.

Data set [6] has as its system 41M (adenocarcinoma of the ovary). Format: cell-based. The settings on record: cell line 41M, MTT, 96 h. On the procedure: as §1, §2, §3, §4
Data set [7] relates to CH1 (adenocarcinoma of the ovary). Format: cell-based. The conditions noted are these: cell line CH1, MTT, 96 h. How it is done: as §1, §2, §3, §4

`O=C1[O][Pt]2([NH]C3CCCC[C@H]3[NH]2)[O]C1=O` (stereo partly shown) [Oxaliplatinum, oxaliplatinum]: the Survivors/total number in data set [1] (dose 1.25 mg/kg) was 5/6; in data set [1] (dose 2.50 mg/kg), 6/6; in data set [1] (dose 5.00 mg/kg), 0/6. Besides, the “animals still alive on day 14” value in data set [1] was “death of all animals”. In data set [2], this molecule gave an MTD at 5 days of 5 mg/kg. In data set [3], the “effectiveness (survival to the end of the experiment)” value is reported as “deaths already occurred”.

For the molecule `CCC1CCC2[NH][Pt]3([NH]C2C1)[O]C(=O)C(=O)[O]3` (stereo not drawn) [[(4-ethyl-trans-chxn)Pt(ox)], (SP-4-3)-(4-ethyl-trans-cyclohexane-1,2-diamine)oxalatoplatinum (II)], the values for the Survivors/total number in data set [1] (dose 1.34 mg/kg), in data set [1] (dose 2.68 mg/kg) and in data set [1] (dose 5.35 mg/kg) were 5/6, 6/6 and 6/6, respectively. Also, the “animals still alive on day 14” value in data set [1] is on record as 6/6. The MTD at 5 days in data set [2] was 10 mg/kg. Further, the weight loss in data set [4] is 5%.

As to `O=C(O)C(=O)O.[NH-]C1CCCCC1[NH-].[Pt+2]` (stereo not drawn) [[(trans-S,S-chxn)Pt(ox)]], in data set [5], the Gl50 is 2.2 µM, 4200 nM corresponded to half-maximal inhibition (IC50) and the TGI was found to be 47800 nM. Besides, in data set [6], the GL50 amounted to 1.11 µM, half-maximal inhibition (IC50) was put at 3200 nM and the TGI was 4400 nM. In addition, in data set [7], the Gl50 came to 1.14 µM, inhibition was half-maximal at 1500 nM (IC50) and the concentration for total growth inhibition (TGI) worked out at 4200 nM.

Consider `O=C(O)C(=O)O.[NH-][C@@H]1CCCC[C@H]1[NH-].[Pt+2]` [[(trans-chxn)Pt(ox)]], for which, in data set [5], the Gl50 was 0.8 µM, the IC50 turned out to be 1600 nM and the TGI was found to be 21800 nM. In data set [6], this molecule had a GL50 of 0.99 µM, a 50% inhibitory concentration (IC50) of 4200 nM and a TGI of 5000 nM. In addition, in data set [7], the Gl50 is 0.54 µM; the midpoint of inhibition, the IC50, lay at 700 nM; the TGI stood at 2000 nM.

On to “(SP-4-3)-(4-methyl-trans-cyclohexane-1,2-diamine)oxalatoplatinum (II) [[(4-methyl-trans-chxn)Pt(ox)]]”, for which the values for the Survivors/total number in data set [1] (dose 1.30 mg/kg), in data set [1] (dose 2.60 mg/kg) and in data set [1] (dose 5.20 mg/kg) were 6/6, 5/6 and 4/6, respectively. Moreover, in data set [1], the “animals still alive on day 14” value was 4/6. The molecule further yielded a weight loss in data set [4] of 5%. Further, the Gl50 in data set [5] is 0.31 µM; in data set [7], 0.22 µM. Besides, the half-inhibitory concentration (IC50) in data set [5] was 650 nM; in data set [6], 2400 nM; in data set [7], 340 nM. In addition, the total growth inhibition concentration (TGI) in data set [5] came out at 9000 nM; in data set [6], 4200 ± 2600 nM; in data set [7] it was 930 nM. In data set [6], the GL50 is 0.91 ± 0.16 µM. The “effectiveness (survival to the end of the experiment)” value in data set [3] is given as “all animals survived the experiment to the end”. Also, the “tolerance at high dosage” value in data set [3] (24 mg/kg, in comparison to I-OHP) was “better tolerance”.

One may read the IC50 as the concentration at which inhibition is half-maximal. One may read the TGI as the concentration at which net growth stops. Low readings indicate greater sensitivity of the cells, high ones lower sensitivity of the cells.

These data come from patent US7057059B2, “Tumor-inhibiting platinum (II) oxalate complexes” (Faustus Forschungs CIE. Translational Cancer Research GmbH, priority 2002, dated 2006).
